Test results published in patent US20230257385A1, “SALT AND SOLID FORMS OF TABERNANTHALOG” (priority 2021, published 2023).

Tests used:
Type in all cases: physicochemical
[1] = Heat-up/cool-down crystallisation screen of sorbate salt (Example 10, Experiments 5, 8); conditions: for Observations (t = 1 @ T = 20° C.): Tabernanthalog sorbate salt (Form A) crystallised from binary solvents, solvent A 3.0 vol plus solvent B, one pair per sample; for XRPD (centrifuged, wet): wet pellet
Description: The relevant solvent (0.225 ml, 3.0 vol) was added to the appropriate vial and the suspensions were stirred and warmed to temperature. If dissolution was not observed, further solvent was added until the solute dissolved, or aliquots of a secondary co-solvent were added to complete dissolution. Once dissolved, the solutions were left to cool down and stand undisturbed under sub-ambient conditions for several days. After crystallisation was judged complete, the products were isolated by centrifugation and the pellets were dried at 40° C. under reduced pressure. Products from the crystallisation (wet and dry) were initially analysed by XRPD (9-minute method), further analyses of certain products were performed by ^1H NMR, DSC and TGA, if the diffraction pattern indicated differences.

[2] = Examination of variability of fusion temperature of sorbate Form A (DSC)
Description: The factors that were assessed to explain the observed variability in fusion temperature found amongst Form A samples were sample loading, preferred orientation and particle size/homogeneity (Table 271). A weak relationship between sample loading and melt onset was observed, the remainder of the factors examined, appeared to be unrelated.
DSC data were collected from 25 to 220C at a scan rate of at 10° C. min^−1 (Table 292).

[3] = DVS 0 to 90 to 0% RH (mass equilibrated); conditions: batch 8-A4
[4] = Experiment 5, heat-up/cool-down crystallisation from binary solvents
[5] = DSC 25-220° C. at 10° C. min^−1, batches of sorbate salt Form A
[6] = DSC 25 to 220C at 10° C. min−1, tabernanthalog sorbate Form A samples
[7] = DSC melt endset, 25 to 220C at 10° C. min−1, tabernanthalog sorbate Form A samples
[8] = DSC melt peak, 25 to 220C at 10° C. min−1, tabernanthalog sorbate Form A samples

CC=CC=CC(=O)O.COc1ccc2c3c([nH]c2c1)CCN(C)CC3 [Experiment 5-Sample B]
Observations (t = 1 @ T = 20° C.) ([1]; Experiment 5): Solid
XRPD (oven dried @ 40° C., 20 h) [1, 4]: Form A
XRPD (centrifuged, wet) [1, 4]: Form A

C/C=C/C=C/C(=O)O.COc1ccc2c3c([nH]c2c1)CCN(C)CC3 [Experiment 5-Sample C]
Observations (t = 1 @ T = 20° C.) ([1]; Experiment 5): Solid
XRPD (oven dried @ 40° C., 20 h) [1, 4]: Form A
XRPD (centrifuged, wet) [1, 4]: Form A

C/C=C/C=C/C(=O)O.COc1ccc2c3c([nH]c2c1)CCN(C)CC3 [Experiment 5-Sample D]
Observations (t = 1 @ T = 20° C.) ([1]; Experiment 5): Liquid
XRPD (oven dried @ 40° C., 20 h) [1, 4]: Form A
XRPD (centrifuged, wet) [1, 4]: Form A

C/C=C/C=C/C(=O)O.COc1ccc2c3c([nH]c2c1)CCN(C)CC3 [Experiment 5-Sample E]
Observations (t = 1 @ T = 20° C.) ([1]; Experiment 5): Partial
XRPD (oven dried @ 40° C., 20 h) [1, 4]: Form A
XRPD (centrifuged, wet) [1, 4]: Form A

C/C=C/C=C/C(=O)O.COc1ccc2c3c([nH]c2c1)CCN(C)CC3 [Experiment 5-Sample F]
Observations (t = 1 @ T = 20° C.) ([1]; Experiment 5): Partial
XRPD (oven dried @ 40° C., 20 h) [1, 4]: Form A
XRPD (centrifuged, wet) [1, 4]: Form A

C/C=C/C=C/C(=O)O.COc1ccc2c3c([nH]c2c1)CCN(C)CC3 [Experiment 5-Sample G]
Observations (t = 1 @ T = 20° C.) ([1]; Experiment 5): Partial
XRPD (oven dried @ 40° C., 20 h) [1, 4]: Form A
XRPD (centrifuged, wet) [1, 4]: Pattern #6

CC=CC=CC(=O)O.COc1ccc2c3c([nH]c2c1)CCN(C)CC3 [Experiment 5-Sample H]
Observations (t = 1 @ T = 20° C.) ([1]; Experiment 5): Partial
XRPD (oven dried @ 40° C., 20 h) [1, 4]: Form A
XRPD (centrifuged, wet) [1, 4]: Form A

C/C=C/C=C/C(=O)O.COc1ccc2c3c([nH]c2c1)CCN(C)CC3 [Experiment 5-Sample I]
Observations (t = 1 @ T = 20° C.) ([1]; Experiment 5): Liquid
XRPD (oven dried @ 40° C., 20 h) [1, 4]: Form A
XRPD (centrifuged, wet) [1, 4]: Form A

C/C=C/C=C/C(=O)O.COc1ccc2c3c([nH]c2c1)CCN(C)CC3 [Experiment 5-Sample J]
Observations (t = 1 @ T = 20° C.) ([1]; Experiment 5): Partial
XRPD (oven dried @ 40° C., 20 h) [1, 4]: Form A
XRPD (centrifuged, wet) [1, 4]: Form A

CC=CC=CC(=O)O.COc1ccc2c3c([nH]c2c1)CCN(C)CC3 [Experiment 5-Sample K]
Observations (t = 1 @ T = 20° C.) ([1]; Experiment 5): Partial
XRPD (oven dried @ 40° C., 20 h) [1, 4]: Form A
XRPD (centrifuged, wet) [1, 4]: Form A

C/C=C/C=C/C(=O)O.COc1ccc2c3c([nH]c2c1)CCN(C)CC3 [Experiment 5-Sample L]
Observations (t = 1 @ T = 20° C.) ([1]; Experiment 5): Partial
XRPD (oven dried @ 40° C., 20 h) [1, 4]: Form A
XRPD (centrifuged, wet) [1, 4]: Form A

C/C=C/C=C/C(=O)O.COc1ccc2c3c([nH]c2c1)CCN(C)CC3 [Experiment 5-Sample M]
Observations (t = 1 @ T = 20° C.) ([1]; Experiment 5): Liquid
XRPD (oven dried @ 40° C., 20 h) [1, 4]: Form A
XRPD (centrifuged, wet) [1, 4]: Form A

C/C=C/C=C/C(=O)O.COc1ccc2c3c([nH]c2c1)CCN(C)CC3 [Experiment 5-Sample N]
Observations (t = 1 @ T = 20° C.) ([1]; Experiment 5): Partial
XRPD (oven dried @ 40° C., 20 h) [1, 4]: Form A
XRPD (centrifuged, wet) [1, 4]: Form A

C/C=C/C=C/C(=O)O.COc1ccc2c3c([nH]c2c1)CCN(C)CC3 [Experiment 5-Sample O]
Observations (t = 1 @ T = 20° C.) ([1]; Experiment 5): Liquid
XRPD (oven dried @ 40° C., 20 h) [1, 4]: Form A
XRPD (centrifuged, wet) [1, 4]: Form A

C/C=C/C=C/C(=O)O.COc1ccc2c3c([nH]c2c1)CCN(C)CC3 [Experiment 5-Sample P]
Observations (t = 1 @ T = 20° C.) ([1]; Experiment 5): Partial
XRPD (oven dried @ 40° C., 20 h) [1, 4]: Form A
XRPD (centrifuged, wet) [1, 4]: Form A

C/C=C/C=C/C(=O)O.COc1ccc2c3c([nH]c2c1)CCN(C)CC3 [Experiment 5-Sample Q]
Observations (t = 1 @ T = 20° C.) ([1]; Experiment 5): Solid
XRPD (oven dried @ 40° C., 20 h) [1, 4]: Form A
XRPD (centrifuged, wet) [1, 4]: Pattern #1

CC=CC=CC(=O)O.COc1ccc2c3c([nH]c2c1)CCN(C)CC3 [Experiment 5-Sample R]
Observations (t = 1 @ T = 20° C.) ([1]; Experiment 5): Liquid
XRPD (oven dried @ 40° C., 20 h) [1, 4]: Form A
XRPD (centrifuged, wet) [1, 4]: Pattern #4

C/C=C/C=C/C(=O)O.COc1ccc2c3c([nH]c2c1)CCN(C)CC3 [Experiment 6-Sample C1]
Endset [2, 5]: 151.0 °C
melt enthalpy [2, 5]: −100.5 Jg^−1
melt onset [2, 5]: 144.7 °C
peak [2, 5]: 148.8 °C
melt enthalpy [2, 6]: −100.48 Jg-1
melt onset [2, 6]: 144.66 °C
Endset [2, 7]: 151.02 °C
peak [2, 8]: 148.83 °C

C/C=C/C=C/C(=O)O.COc1ccc2c3c([nH]c2c1)CCN(C)CC3 [Experiment 6-Sample D1]
Endset [2, 5]: 150.2 °C
melt enthalpy [2, 5]: −105.7 Jg^−1
melt onset [2, 5]: 144.0 °C
peak [2, 5]: 148.0 °C
melt enthalpy [2, 6]: −166.35 Jg-1
melt onset [2, 6]: 144.03 °C
Endset [2, 7]: 150.17 °C
peak [2, 8]: 148.00 °C

C/C=C/C=C/C(=O)O.COc1ccc2c3c([nH]c2c1)CCN(C)CC3 [Experiment 6-Sample E1]
Endset [2, 5]: 151.6 °C
melt enthalpy [2, 5]: −105.7 Jg^−1
melt onset [2, 5]: 145.0 °C
peak [2, 5]: 148.8 °C
melt enthalpy [2, 6]: −105.68 Jg-1
melt onset [2, 6]: 145.00 °C
Endset [2, 7]: 151.59 °C
peak [2, 8]: 148.83 °C

C/C=C/C=C/C(=O)O.COc1ccc2c3c([nH]c2c1)CCN(C)CC3 [Experiment 7-Sample A neat]
Endset [2, 5]: 148.5 °C
melt enthalpy [2, 5]: −122.5 Jg^−1
melt onset [2, 5]: 144.4 °C
peak [2, 5]: 146.8 °C
melt enthalpy [2, 6]: −122.47 Jg-1
melt onset [2, 6]: 144.39 °C
Endset [2, 7]: 148.53 °C
peak [2, 8]: 146.83 °C

CC=CC=CC(=O)O.COc1ccc2c3c([nH]c2c1)CCN(C)CC3 [Experiment 8-Sample A]
XRPD (centrifuged, wet) ([1]; Experiment 8, repeat of HUCD crystallisations aiming at Pattern #1 (water) and Pattern #6 (heptane/ethyl formate)): Pattern #1

C/C=C/C=C/C(=O)O.COc1ccc2c3c([nH]c2c1)CCN(C)CC3 [Pattern A1270-20-V2]
Endset [2, 5]: 152.0 °C
melt enthalpy [2, 5]: −84.1 Jg^−1
melt onset [2, 5]: 143.9 °C
peak [2, 5]: 148.8 °C
melt enthalpy [2, 6]: −84.09 Jg-1
melt onset [2, 6]: 143.89 °C
Endset [2, 7]: 151.95 °C
peak [2, 8]: 148.83 °C

COc1ccc2c3c([nH]c2c1)CCN(C)CC3 [fumarate]
DVS 0 to 90 to 0% RH (dm/dt <0.002%) ([3]; desorption, 5.0% RH): 0.1179%
DVS 0 to 90 to 0% RH (dm/dt <0.002%) ([3]; desorption, 10.0% RH): 0.1551%
DVS 0 to 90 to 0% RH (dm/dt <0.002%) ([3]; desorption, 15.0% RH): 0.1857%
DVS 0 to 90 to 0% RH (dm/dt <0.002%) ([3]; desorption, 20.0% RH): 0.2126%
DVS 0 to 90 to 0% RH (dm/dt <0.002%) ([3]; desorption, 25.0% RH): 0.2387%
DVS 0 to 90 to 0% RH (dm/dt <0.002%) ([3]; desorption, 30.0% RH): 0.2656%
DVS 0 to 90 to 0% RH (dm/dt <0.002%) ([3]; desorption, 40.0% RH): 0.3210%
DVS 0 to 90 to 0% RH (dm/dt <0.002%) ([3]; desorption, 50.0% RH): 0.3797%
DVS 0 to 90 to 0% RH (dm/dt <0.002%) ([3]; desorption, 60.0% RH): 0.4515%
DVS 0 to 90 to 0% RH (dm/dt <0.002%) ([3]; desorption, 70.0% RH): 0.5442%
DVS 0 to 90 to 0% RH (dm/dt <0.002%) ([3]; desorption, 80.0% RH): 0.6827%
DVS 0 to 90 to 0% RH (dm/dt <0.002%) ([3]; desorption, 90.0% RH): 0.9766%
DVS 0 to 90 to 0% RH (dm/dt <0.002%) ([3]; sorption, 0.0% RH): DVS 0 to 90 to 0% RH (dm/dt <0.002%): 0.0 (0.0004%), 5.0
DVS 0 to 90 to 0% RH (dm/dt <0.002%) ([3]; sorption, 5.0% RH): 0.0627%
DVS 0 to 90 to 0% RH (dm/dt <0.002%) ([3]; sorption, 10.0% RH): 0.0957%
DVS 0 to 90 to 0% RH (dm/dt <0.002%) ([3]; sorption, 15.0% RH): 0.1397%
DVS 0 to 90 to 0% RH (dm/dt <0.002%) ([3]; sorption, 20.0% RH): 0.1778%
DVS 0 to 90 to 0% RH (dm/dt <0.002%) ([3]; sorption, 25.0% RH): 0.2093%
DVS 0 to 90 to 0% RH (dm/dt <0.002%) ([3]; sorption, 30.0% RH): 0.2401%
DVS 0 to 90 to 0% RH (dm/dt <0.002%) ([3]; sorption, 40.0% RH): 0.3145%
DVS 0 to 90 to 0% RH (dm/dt <0.002%) ([3]; sorption, 50.0% RH): 0.4051%
DVS 0 to 90 to 0% RH (dm/dt <0.002%) ([3]; sorption, 70.0% RH): 0.5451%
DVS 0 to 90 to 0% RH (dm/dt <0.002%) ([3]; sorption, 80.0% RH): 0.6660%
DVS 0 to 90 to 0% RH (dm/dt <0.002%) ([3]; sorption, 90.0% RH): 0.9766%
